# ChEMBL document CHEMBL5321275, “Discovery, Optimization, and Evaluation of Novel N-(Benzimidazol-5-yl)-1,3,4-thiadiazol-2-amine Analogues as Potent STAT3 Inhibitors for Cancer Treatment” (J Med Chem, 2023)
# The source made the active and inactive calls. No cut-off for these calls is given here.
# Legend:
# DU-145 [1] = assay: Antiproliferative activity against human DU-145 cells assessed as inhibition of cell growth at 10 uM measured after 96 hrs by MTT assay relative to control; type: functional
# PANC-1 = assay: Antiproliferative activity against human PANC-1 cells assessed as inhibition of cell growth measured after 96 hrs by MTT assay; type: functional, cell-based; conditions: PANC-1, 96 h
# [2] = Cmax in ICR mouse at 50 mg/kg, po measured upto 96 hrs by HPLC-MS/MS analysis; type: ADME, organism-based; design: time < 96 hrs, dose 50 mg/kg, route po; conditions: in vivo
# DU-145 [3] = assay: Induction of apoptosis in human DU-145 cells assessed as early apoptotic cells at 5 uM measured after 48 hrs by annexin V-FITC and PI staining based flow cytometry analysis (reference value: 2.5%); type: functional
# [4] = molecular target: T1, Signal transducer and activator of transcription 3 (Homo sapiens, UniProt P40763); assay: Inhibition of STAT3 phosphorylation at Tyr705 residue in human DU-145 cells incubated for 24 hrs by Western blot analysis; type: cell-based; conditions: dose <= 10.0 µM
# [5] = Solubility of compound in water incubated for 10 mins; type: physicochemical
# DU-145 [6] = assay: Induction of apoptosis in human DU-145 cells assessed as early apoptotic cells at 1 uM measured after 48 hrs by annexin V-FITC and PI staining based flow cytometry analysis (reference value: 2.5%); type: functional
# MDA-MB-231 [7] = assay: Induction of apoptosis in human MDA-MB-231 cells assessed as late apoptotic cells at 10 uM measured after 48 hrs by annexin V-FITC and PI staining based flow cytometry analysis (reference value: 3.1%); type: functional
# [8] = Tmax in ICR mouse at 50 mg/kg, po measured upto 96 hrs by HPLC-MS/MS analysis; type: ADME, organism-based; conditions: in vivo
# [9] = AUC (0 to t) in ICR mouse at 5 mg/kg, iv measured upto 96 hrs by HPLC-MS/MS analysis; type: ADME, organism-based; design: time < 96 hrs, dose 5 mg/kg, route iv; conditions: in vivo
# MDA-MB-231 [10] = assay: Induction of apoptosis in human MDA-MB-231 cells assessed as induction of PARP cleavage at upto 10 uM measured after 48 hrs by […]; type: functional, cell-based
# [11] = Toxicity in Balb/c mouse assessed as effect on spleen at 50 mg/kg by hematoxylin and eosin staining based histopathological analysis; type: organism-based; conditions: in vivo
# DU-145 [12] = assay: Induction of apoptosis in human DU-145 cells assessed as late apoptotic cells at 1 uM measured after 48 hrs by annexin V-FITC and PI staining based flow cytometry analysis (reference value: 2.0%); type: functional
# MDA-MB-231 [13] = assay: Antiproliferative activity against human MDA-MB-231 cells assessed as inhibition of cell growth measured after 96 hrs by MTT assay; type: functional, cell-based; conditions: MDA-MB-231, 96 h
# [14] = AUC (0 to t) in ICR mouse at 50 mg/kg, po measured upto 96 hrs by HPLC-MS/MS analysis; type: ADME, organism-based; design: dose 50 mg/kg, time < 96 hrs, route po; conditions: in vivo
# [15] = Antiproliferative activity against human PBMC cells assessed as inhibition of cell growth measured after 96 hrs by MTT assay; type: functional, cell-based
# [16] = Toxicity in Balb/c mouse assessed as effect on kidney at 50 mg/kg by hematoxylin and eosin staining based histopathological analysis; type: organism-based; conditions: in vivo
# [17] = Volume of distribution at steady state in ICR mouse at 50 mg/kg, po measured upto 96 hrs by HPLC-MS/MS analysis; type: ADME, organism-based; conditions: in vivo
# [18] = Cmax in ICR mouse at 5 mg/kg, iv measured upto 96 hrs by HPLC-MS/MS analysis; type: ADME, organism-based; design: dose 5 mg/kg, time < 96 hrs, route iv; conditions: in vivo
# DU-145 [19] = assay: Induction of apoptosis in human DU-145 cells measured after 48 hrs by annexin V-FITC and PI staining based flow cytometry analysis; type: functional, cell-based; conditions: dose <= 10.0 µM
# [20] = Drug concentration in ICR mouse plasma at 5 mg/kg, iv measured at 2 mins; type: ADME, organism-based
# MDA-MB-231 [21] = assay: Induction of apoptosis in human MDA-MB-231 cells assessed as late apoptotic cells at 5 uM measured after 48 hrs by annexin V-FITC and PI staining based flow cytometry analysis (reference value: 3.1%); type: functional
# [22] = Toxicity in Balb/c mouse assessed as effect on liver at 50 mg/kg by hematoxylin and eosin staining based histopathological analysis; type: organism-based; conditions: in vivo
# DU-145 [23] = assay: Induction of apoptosis in human DU-145 cells assessed as late apoptotic cells at 5 uM measured after 48 hrs by annexin V-FITC and PI staining based flow cytometry analysis (reference value: 2.0%); type: functional
# [24] = Inhibition of IL-6/JAK/STAT3 signalling pathway in HEK-Blue IL-6 cells incubated for 16 hrs by QUANTI-blue assay; type: cell-based; conditions: Homo sapiens, HEK-Blue IL-6, 16 h
# [25] = Toxicity in Balb/c mouse assessed as serious adverse effect at 50 mg/kg, ip administered once daily for 16 days; type: organism-based; conditions: in vivo, 384 h, time 16 day
# [26] = molecular target: T1, Signal transducer and activator of transcription 3; assay: Inhibition of STAT3 in human DU-145 cells assessed as downregulation of c-myc expression at upto 10 uM measured after 24 hrs; type: cell-based
# [27] = Half life in ICR mouse at 5 mg/kg, iv measured upto 96 hrs by HPLC-MS/MS analysis; type: ADME, organism-based; conditions: in vivo
# [28] = MRT (0 to infinity) in ICR mouse at 5 mg/kg, iv measured upto 96 hrs by HPLC-MS/MS analysis; type: ADME, organism-based; conditions: in vivo
# MDA-MB-231 [29] = assay: Induction of apoptosis in human MDA-MB-231 cells assessed as cell apoptotic percentage at 10 uM measured after 48 hrs by annexin V-FITC and PI staining based flow cytometry analysis relative to control; type: functional
# [30] = molecular target: T2, Signal transducer and activator of transcription 1-alpha/beta (Homo sapiens) (UniProt P42224); assay: Inhibition of STAT1 phosphorylation in human DU-145 cells at 10 uM measured after 24 hrs by Western blot analysis; type: cell-based
# T2 sequence (whole entry): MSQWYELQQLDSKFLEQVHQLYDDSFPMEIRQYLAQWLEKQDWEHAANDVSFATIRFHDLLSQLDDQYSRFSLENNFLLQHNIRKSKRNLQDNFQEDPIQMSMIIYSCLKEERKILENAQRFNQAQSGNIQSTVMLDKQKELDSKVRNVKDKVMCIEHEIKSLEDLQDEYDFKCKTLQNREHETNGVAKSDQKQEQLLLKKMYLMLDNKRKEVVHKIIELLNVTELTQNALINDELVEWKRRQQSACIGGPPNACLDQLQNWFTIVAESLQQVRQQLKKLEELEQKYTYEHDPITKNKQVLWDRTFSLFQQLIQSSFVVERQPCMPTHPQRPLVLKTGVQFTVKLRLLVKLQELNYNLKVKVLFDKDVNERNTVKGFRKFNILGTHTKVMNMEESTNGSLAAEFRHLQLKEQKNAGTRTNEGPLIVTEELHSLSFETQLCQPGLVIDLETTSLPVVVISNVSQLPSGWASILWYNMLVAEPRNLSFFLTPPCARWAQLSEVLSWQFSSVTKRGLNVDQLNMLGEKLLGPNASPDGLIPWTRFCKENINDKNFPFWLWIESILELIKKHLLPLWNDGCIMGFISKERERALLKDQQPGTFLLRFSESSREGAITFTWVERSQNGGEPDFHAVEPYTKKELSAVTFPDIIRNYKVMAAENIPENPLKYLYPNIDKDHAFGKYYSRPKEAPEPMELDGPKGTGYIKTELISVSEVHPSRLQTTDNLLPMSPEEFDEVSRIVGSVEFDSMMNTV
# T1 sequence (P40763 whole entry): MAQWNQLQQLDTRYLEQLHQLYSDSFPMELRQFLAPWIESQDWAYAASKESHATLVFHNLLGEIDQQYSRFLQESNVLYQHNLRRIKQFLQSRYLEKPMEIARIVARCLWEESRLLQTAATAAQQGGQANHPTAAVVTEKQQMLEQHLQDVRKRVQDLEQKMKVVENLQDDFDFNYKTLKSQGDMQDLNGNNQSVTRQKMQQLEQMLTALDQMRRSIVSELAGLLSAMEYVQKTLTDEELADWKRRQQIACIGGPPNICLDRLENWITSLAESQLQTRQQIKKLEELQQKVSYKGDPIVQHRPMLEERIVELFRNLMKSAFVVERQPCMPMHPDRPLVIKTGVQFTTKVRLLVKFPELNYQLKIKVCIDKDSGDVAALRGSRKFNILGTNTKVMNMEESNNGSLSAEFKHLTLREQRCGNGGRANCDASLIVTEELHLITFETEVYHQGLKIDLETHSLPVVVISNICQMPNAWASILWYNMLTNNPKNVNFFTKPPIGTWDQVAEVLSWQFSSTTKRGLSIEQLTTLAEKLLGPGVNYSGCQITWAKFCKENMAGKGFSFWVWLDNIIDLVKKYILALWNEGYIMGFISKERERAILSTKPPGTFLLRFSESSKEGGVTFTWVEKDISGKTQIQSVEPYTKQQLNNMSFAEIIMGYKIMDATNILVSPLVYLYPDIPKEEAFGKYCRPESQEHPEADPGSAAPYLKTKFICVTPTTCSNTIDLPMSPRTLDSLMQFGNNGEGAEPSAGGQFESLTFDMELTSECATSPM
compound,measurement,setting,value
CN1CCN(c2cc3c(cc2Nc2nnc(-c4ccc(C(F)(F)F)cc4)s2)nc(-c2ccc(F)cc2)n3C2CC2)CC1,inhibition at 10 µM,DU-145 [1],92.7%
same,IC50,PANC-1,2430 nM
same,Cmax,[2],910 ng/mL
same,Activity,DU-145 [3],6.9%
same,inhibition,[4],Dose-Dependent Effect
same,solubility at 10 min,[5],1.04 µg/mL
same,Activity,DU-145 [6],2.1%
same,Activity,MDA-MB-231 [7],20.1%
same,Tmax,[8],4.67 h
same,AUC(0-t) at 96 h,[9],3430 ng·h/mL
same,Activity,MDA-MB-231 [10],Active
same,Activity,[11],Non-Toxic
same,Activity,DU-145 [12],2.4%
same,IC50,MDA-MB-231 [13],3260 nM
same,AUC(0-t) at 96 h,[14],17800 ng·h/mL
same,IC50,[15],16300 nM
same,Activity,[16],Non-Toxic
same,Vdss,[17],40.17172 L/kg
same,Cmax,[18],667 ng/mL
same,Activity,DU-145 [19],Dose-Dependent Effect
same,concentration at 2 min,[20],549 ng/mL
same,Activity,MDA-MB-231 [21],10.7%
same,Activity,[22],Non-Toxic
same,Activity,DU-145 [23],13.9%
same,IC50,[24],650 nM
same,Activity,[25],Non-Toxic
same,inhibition,[26],Active
same,half-life,[27],9 h
same,MRT inf,[28],15.3 h
same,Activity,MDA-MB-231 [29],79.3%
same,inhibition,[30],inactive
